Test results as given in ChEMBL document CHEMBL3885881, “DrugMatrix”.

Organism: Rattus norvegicus
Test: DrugMatrix - Regimen: Daily Repeat
Assay type: toxicity, organism-based, Sprague-Dawley
Set-up: regimen Daily Repeat, gender Male, age 6-8 weeks
Conditions: in vivo, po, route oral GAVAGE, […]; for ABSOLUTE BASOPHIL / ABSOLUTE EOSINOPHIL / ABSOLUTE LYMPHOCYTE / ABSOLUTE SEGMENTED NEUTROPHIL / BASOPHIL / EOSINOPHIL / ERYTHROCYTE COUNT / HEMATOCRIT / HEMOGLOBIN / LYMPHOCYTE / MEAN CORPUSCULAR HEMOGLOBIN / MEAN CORPUSCULAR HEMOGLOBIN CONCENTRATION / MEAN CORPUSCULAR VOLUME / MONOCYTE / NUCLEATED RED BLOOD CELLS / PLATELET COUNT: tissue Blood; for ALANINE AMINOTRANSFERASE / ALBUMIN / ALKALINE PHOSPHATASE / ASPARTATE AMINOTRANSFERASE / BLOOD UREA NITROGEN / CARBON DIOXIDE / CHOLESTEROL / CREATINE PHOSPHOKINASE / CREATININE / GLUCOSE / LACTATE DEHYDROGENASE / POTASSIUM / SODIUM / TOTAL BILIRUBIN / TOTAL PROTEIN / URIC ACID: tissue Plasma
[1] = 0 mg/kg, 72 h, dose level Control, time 3 day
[2] = 0 mg/kg, 120 h, dose level Control, time 5 day
[3] = 20 mg/kg, 72 h, dose level Low, time 3 day

COc1ccccc1OCCNCC(O)COc1cccc2[nH]c3ccccc3c12 (stereo unspecified) [CARVEDILOL]
ABSOLUTE BASOPHIL [1]: 0 CELLS/uL | ABSOLUTE EOSINOPHIL [1]: 0 CELLS/uL | ABSOLUTE LYMPHOCYTE [1]: 9244.83 CELLS/uL | ABSOLUTE SEGMENTED NEUTROPHIL [1]: 869.83 CELLS/uL | BASOPHIL [1]: 0% | EOSINOPHIL [1]: 0% | ERYTHROCYTE COUNT [1]: 5.43 x10E6/uL | HEMATOCRIT [1]: 34.03% | HEMOGLOBIN [1]: 13.27 G/DL | LYMPHOCYTE [1]: 90.33% | MEAN CORPUSCULAR HEMOGLOBIN [1]: 24.48 pg | MEAN CORPUSCULAR HEMOGLOBIN CONCENTRATION [1]: 39.03 G/DL | MEAN CORPUSCULAR VOLUME [1]: 62.75 fL | MONOCYTE [1]: 1% | NUCLEATED RED BLOOD CELLS [1]: 0.17 /100WBC | PLATELET COUNT [1]: 989 x10E3/uL | ALANINE AMINOTRANSFERASE [1]: 77 u/L | ALBUMIN [1]: 3.97 G/DL | ALKALINE PHOSPHATASE [1]: 464.83 u/L | ASPARTATE AMINOTRANSFERASE [1]: 89.83 u/L | BLOOD UREA NITROGEN [1]: 12.17 mg/dL | CARBON DIOXIDE [1]: 34.17 mmol/L | CHOLESTEROL [1]: 75.17 mg/dL | CREATINE PHOSPHOKINASE [1]: 367.67 u/L | CREATININE [1]: 0.16 mg/dL | GLUCOSE [1]: 142.67 mg/dL | LACTATE DEHYDROGENASE [1]: 139.33 u/L | POTASSIUM [1]: 6.38 MEQ/L | SODIUM [1]: 143.2 MEQ/L | TOTAL BILIRUBIN [1]: 0.2 mg/dL | TOTAL PROTEIN [1]: 5.77 G/DL | URIC ACID [1]: 0.7 mg/dL | ABSOLUTE BASOPHIL [2]: 0 CELLS/uL | ABSOLUTE EOSINOPHIL [2]: 0 CELLS/uL | ABSOLUTE LYMPHOCYTE [2]: 8295.33 CELLS/uL | ABSOLUTE SEGMENTED NEUTROPHIL [2]: 970 CELLS/uL | BASOPHIL [2]: 0% | EOSINOPHIL [2]: 0% | ERYTHROCYTE COUNT [2]: 5.74 x10E6/uL | HEMATOCRIT [2]: 36.22% | HEMOGLOBIN [2]: 13.85 G/DL | LYMPHOCYTE [2]: 88.67% | MEAN CORPUSCULAR HEMOGLOBIN [2]: 24.13 pg | MEAN CORPUSCULAR HEMOGLOBIN CONCENTRATION [2]: 38.25 G/DL | MEAN CORPUSCULAR VOLUME [2]: 63.08 fL | MONOCYTE [2]: 1% | NUCLEATED RED BLOOD CELLS [2]: 0.17 /100WBC | PLATELET COUNT [2]: 883.83 x10E3/uL | ALANINE AMINOTRANSFERASE [2]: 64.5 u/L | ALBUMIN [2]: 4.12 G/DL | ALKALINE PHOSPHATASE [2]: 425.67 u/L | ASPARTATE AMINOTRANSFERASE [2]: 88.5 u/L | BLOOD UREA NITROGEN [2]: 14.17 mg/dL | CARBON DIOXIDE [2]: 30.5 mmol/L | CHOLESTEROL [2]: 55.33 mg/dL | CREATINE PHOSPHOKINASE [2]: 287.17 u/L | CREATININE [2]: 0.2 mg/dL | GLUCOSE [2]: 162.83 mg/dL | LACTATE DEHYDROGENASE [2]: 111.33 u/L | POTASSIUM [2]: 5.13 MEQ/L | SODIUM [2]: 143.93 MEQ/L | TOTAL BILIRUBIN [2]: 0.17 mg/dL | TOTAL PROTEIN [2]: 5.9 G/DL | URIC ACID [2]: 0.77 mg/dL | ABSOLUTE BASOPHIL [3]: 0 CELLS/uL | ABSOLUTE EOSINOPHIL [3]: 67.33 CELLS/uL | ABSOLUTE LYMPHOCYTE [3]: 15458 CELLS/uL | ABSOLUTE SEGMENTED NEUTROPHIL [3]: 1844 CELLS/uL | BASOPHIL [3]: 0% | EOSINOPHIL [3]: 0.33% | ERYTHROCYTE COUNT [3]: 5.47 x10E6/uL | HEMATOCRIT [3]: 34.53% | HEMOGLOBIN [3]: 13.3 G/DL | LYMPHOCYTE [3]: 89.33% | MEAN CORPUSCULAR HEMOGLOBIN [3]: 24.47 pg | MEAN CORPUSCULAR HEMOGLOBIN CONCENTRATION [3]: 38.5 G/DL | MEAN CORPUSCULAR VOLUME [3]: 63.47 fL | MONOCYTE [3]: 0.33% | NUCLEATED RED BLOOD CELLS [3]: 0 /100WBC | PLATELET COUNT [3]: 907.33 x10E3/uL | ALANINE AMINOTRANSFERASE [3]: 76.33 u/L | ALBUMIN [3]: 4.1 G/DL | ALKALINE PHOSPHATASE [3]: 486 u/L | ASPARTATE AMINOTRANSFERASE [3]: 96.67 u/L | BLOOD UREA NITROGEN [3]: 11 mg/dL | CARBON DIOXIDE [3]: 32.67 mmol/L | CHOLESTEROL [3]: 75.67 mg/dL | CREATINE PHOSPHOKINASE [3]: 501.33 u/L | CREATININE [3]: 0.24 mg/dL | GLUCOSE [3]: 131 mg/dL | LACTATE DEHYDROGENASE [3]: 152.67 u/L | POTASSIUM [3]: 5.98 MEQ/L | SODIUM [3]: 145.6 MEQ/L | TOTAL BILIRUBIN [3]: 0.17 mg/dL | TOTAL PROTEIN [3]: 5.8 G/DL | URIC ACID [3]: 0.6 mg/dL
